Assay results taken from patent US20010051636A1, “Combination treatment for inhibiting bone loss” (priority 1994, published 2001).
Marks after values point to notes of the source that are not given here.

Legend:
Assay type in all cases: in vivo
[1] = Body weight change in the ovex rat study BBA-9311
Method: (§1) Body weight was determined at the time of surgery and weekly during the study, and the dosage was adjusted with changes in body weight. Vehicle-treated ovariectomized (ovex) rats and non-ovariectomized (intact) rats were evaluated in parallel with each experimental group to serve as negative and positive controls.

[2] = system: ovariectomized (ovex) rats; assay: 5-week ovex rat model of post-menopausal osteoporosis: femur density by X-ray grey scale image analysis; conditions: for anti-resorptive activity (in words): 0.1 mg/kg, each compound separately; for RANGE 0-60 (relative density of bone, femur X-ray grey scale): Table 3
Method: In the following, a model of post-menopausal osteoporosis was used in which effects of different treatments upon femur density were determined.
Seventy-five day old female Sprague Dawley rats (weight range of 225 to 275 g) were obtained from Charles River Laboratories (Portage, Mich.). They were housed in groups of 3 and had ad libitum access to food (calcium content approximately 1%) and water. Room temperature was maintained at 22.2°±1.7° C. with a minimum relative humidity of 40%. The photoperiod in the room was 12 hours light and 12 hours dark.
One week after arrival, the rats underwent bilateral ovariectomy under anesthesia (44 mg/kg Ketamine and 5 mg/kg Xylazine (Butler, Indianapolis, Ind.) administered intramuscularly). Treatment with vehicle or the indicated compound was initiated either on the day of surgery following recovery from anesthesia or 35 days following the surgery.
Oral dosage was by gavage in 0.5 mL of 1% carboxymethylcellulose (CMC).
as §1
(§2) The rats were treated daily for 35 days (6 rats per treatment group) and sacrificed by decapitation on the 36th day. […] At the time of sacrifice, the uteri were removed, dissected free of extraneous tissue, and the fluid contents were expelled before determination of wet weight in order to confirm estrogen deficiency associated with complete ovariectomy. […] The uteri were then placed in 10% neutral buffered formalin to allow for subsequent histological analysis.
The right femurs are excised and scanned at the distal metaphysis proximal from the growth plate region by grey scale image analysis of digitalized X-ray generation on a Nicolet NXR-1200 real time X-ray imaging system.

[3] = system: ovariectomized (ovex) rats; assay: Uterine wet weight in the ovex rat study BBA-9311
Method: as §2

[4] = Table 1, 1 mg/kg PO CDX, 47KV/4.5C, 35 days

| SMILES | Ave BW Chg ([1]; Table 4 BBA-9311, 1 mg/kg) | Ave BW Chg ([1]; Table 4 BBA-9311, .1 mg/kg) | anti-resorptive activity (in words) [2] | Ave Ut Wt ([3]; Table 4 BBA-9311, 1 mg/kg) | Ave Ut Wt ([3]; Table 4 BBA-9311, .1 mg/kg) | RANGE 0-50 (relative density of bone, femur X-ray grey scale) [2, 4] | further results |
| --- | --- | --- | --- | --- | --- | --- | --- |
| NCCCC(O)(P(=O)(O)O)P(=O)(O)O [ALN, Alendronate] | 106.000 | 102.167 | inactive | 108.667 | 100.833 | – | – |
| Cl.O=C(c1ccc(OCCN2CCCCC2)cc1)c1c(-c2ccc(O)cc2)sc2cc(O)ccc12 [RAL, [6-hydroxy-2-(4-hydroxyphenyl)benzo[b]thien-3-yl][4-[2-(1-piperidinyl)ethoxy]phenyl]methanone hydrochloride] | 49.667 | 75.833 | inactive | 166.000 | 157.667 | 57.67* | RANGE 0-50 (relative density of bone, femur X-ray grey scale) ([2]; Table 2, 1 mg/kg PO CDX): 80.98*; RANGE 0-60 (relative density of bone, femur X-ray grey scale) ([2]; 0.1 mg/kg PO CDX, 47KV/4.5C): 36.76; RANGE 0-60 (relative density of bone, femur X-ray grey scale) ([2]; 1 mg/kg PO CDX): 40.37 |
| C#C[C@]1(O)CC[C@H]2[C@@H]3CCc4cc(O)ccc4[C@H]3CC[C@@]21C [EE2, ethynylestradiol] | – | – | – | – | – | – | Ave BW Chg ([1]; Table 4, 100 μg/kg): 49.000; RANGE 0-50 (relative density of bone, femur X-ray grey scale) ([2]; Table 1, 100 μg/kg PO CDX): 51.29*; RANGE 0-50 (relative density of bone, femur X-ray grey scale) ([2]; Table 2, 30 μg/kg PO CDX): 50.87; RANGE 0-50 (relative density of bone, femur X-ray grey scale) ([2]; Table 2, 100 μg/kg PO CDX): 61.09*; RANGE 0-60 (relative density of bone, femur X-ray grey scale) ([2]; 100 μg/kg PO CDX): 62.88*; Ave Ut Wt ([3]; Table 4, 100 μg/kg): 399.000 |
| CC(=O)O[C@]1(C(C)=O)CC[C@H]2[C@@H]3C[C@H](C)C4=CC(=O)CC[C@]4(C)[C@H]3CC[C@@]21C [Provera] | – | – | – | – | – | 30.10 | protection from bone loss (in words) ([2]; 10 mg/kg, by itself): protective effect; RANGE 0-50 (relative density of bone, femur X-ray grey scale) ([2]; Table 1, 10 mgmg/kg PO CDX, 47KV/4.5C, 35 days): 64.16* |
